Laboratory results published in patent publication US20240246942A1, “KINASE INHIBITORS FOR THE TREATMENT OF NEURODEGENERATIVE DISEASES” (priority 2020, published 2024).

What was measured:
Assay in all cases: biochemical
[1] = molecular target: T1, panel of 374 wild-type kinases (Homo sapiens, UniProt P54760); conditions: read-out: % Enzyme Activity (relative to DMSO controls), EPHB4
T1 construct: purchased Reaction Biology Corporation
T1 sequence (P54760 16-987): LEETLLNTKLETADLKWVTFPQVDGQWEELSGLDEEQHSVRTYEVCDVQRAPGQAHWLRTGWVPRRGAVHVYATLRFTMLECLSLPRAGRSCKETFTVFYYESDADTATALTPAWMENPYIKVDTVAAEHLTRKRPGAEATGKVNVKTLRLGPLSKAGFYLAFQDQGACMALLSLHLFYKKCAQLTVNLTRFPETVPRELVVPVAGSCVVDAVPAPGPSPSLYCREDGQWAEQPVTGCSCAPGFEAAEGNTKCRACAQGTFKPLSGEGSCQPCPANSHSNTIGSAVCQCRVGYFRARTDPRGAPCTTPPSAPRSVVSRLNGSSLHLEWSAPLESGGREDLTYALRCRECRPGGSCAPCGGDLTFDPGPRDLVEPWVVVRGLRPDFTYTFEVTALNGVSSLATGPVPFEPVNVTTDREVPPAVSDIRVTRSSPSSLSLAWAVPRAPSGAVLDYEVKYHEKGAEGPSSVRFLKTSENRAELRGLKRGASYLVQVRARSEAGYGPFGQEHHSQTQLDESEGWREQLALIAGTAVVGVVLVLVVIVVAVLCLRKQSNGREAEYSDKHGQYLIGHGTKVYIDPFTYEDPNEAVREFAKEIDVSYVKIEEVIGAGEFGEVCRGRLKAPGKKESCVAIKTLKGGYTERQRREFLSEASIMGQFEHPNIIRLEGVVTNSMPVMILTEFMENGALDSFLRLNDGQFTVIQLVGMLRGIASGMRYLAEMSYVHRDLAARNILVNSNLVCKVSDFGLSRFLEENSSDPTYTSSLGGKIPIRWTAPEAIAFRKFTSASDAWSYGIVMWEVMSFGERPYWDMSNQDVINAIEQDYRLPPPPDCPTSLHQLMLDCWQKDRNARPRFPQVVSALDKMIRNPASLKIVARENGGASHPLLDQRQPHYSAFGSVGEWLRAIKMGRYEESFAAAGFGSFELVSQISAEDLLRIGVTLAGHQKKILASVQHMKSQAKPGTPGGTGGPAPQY

[2] = molecular target: T2, panel of 374 wild-type kinases (Homo sapiens, UniProt O94804); conditions: read-out: % Enzyme Activity (relative to DMSO controls), LOK/STK10
T2 construct: purchased Reaction Biology Corporation
T2 sequence (O94804 whole entry): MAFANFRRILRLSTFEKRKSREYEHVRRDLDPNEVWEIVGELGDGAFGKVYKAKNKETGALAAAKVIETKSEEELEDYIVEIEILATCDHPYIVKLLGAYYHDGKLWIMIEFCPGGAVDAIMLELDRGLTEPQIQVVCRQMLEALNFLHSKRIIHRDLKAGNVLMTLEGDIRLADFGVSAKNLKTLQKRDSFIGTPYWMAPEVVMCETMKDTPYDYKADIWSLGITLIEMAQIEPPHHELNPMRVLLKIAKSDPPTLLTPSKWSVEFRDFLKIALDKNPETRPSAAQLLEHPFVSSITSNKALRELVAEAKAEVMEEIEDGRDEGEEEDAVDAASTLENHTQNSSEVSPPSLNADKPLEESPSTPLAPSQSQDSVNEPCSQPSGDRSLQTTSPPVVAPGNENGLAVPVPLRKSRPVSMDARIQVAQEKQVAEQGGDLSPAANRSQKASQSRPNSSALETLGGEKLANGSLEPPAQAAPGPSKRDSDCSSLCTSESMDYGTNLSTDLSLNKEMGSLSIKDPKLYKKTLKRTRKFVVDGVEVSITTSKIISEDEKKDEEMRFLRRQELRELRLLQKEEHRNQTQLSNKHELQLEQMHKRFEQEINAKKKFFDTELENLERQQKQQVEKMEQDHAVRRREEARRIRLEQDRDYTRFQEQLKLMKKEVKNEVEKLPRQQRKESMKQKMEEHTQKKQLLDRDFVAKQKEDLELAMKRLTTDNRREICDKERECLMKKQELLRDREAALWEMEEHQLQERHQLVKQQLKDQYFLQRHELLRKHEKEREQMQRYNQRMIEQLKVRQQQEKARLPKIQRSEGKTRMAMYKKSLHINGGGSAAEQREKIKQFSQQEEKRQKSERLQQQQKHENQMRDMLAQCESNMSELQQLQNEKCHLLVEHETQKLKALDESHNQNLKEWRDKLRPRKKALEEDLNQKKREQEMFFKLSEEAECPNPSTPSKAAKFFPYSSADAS

[3] = molecular target: T3, panel of 374 wild-type kinases (Homo sapiens, UniProt O15264); conditions: read-out: % Enzyme Activity (relative to DMSO controls), kinase P38d/MAPK13
T3 construct: purchased Reaction Biology Corporation
T3 sequence (O15264 1-365): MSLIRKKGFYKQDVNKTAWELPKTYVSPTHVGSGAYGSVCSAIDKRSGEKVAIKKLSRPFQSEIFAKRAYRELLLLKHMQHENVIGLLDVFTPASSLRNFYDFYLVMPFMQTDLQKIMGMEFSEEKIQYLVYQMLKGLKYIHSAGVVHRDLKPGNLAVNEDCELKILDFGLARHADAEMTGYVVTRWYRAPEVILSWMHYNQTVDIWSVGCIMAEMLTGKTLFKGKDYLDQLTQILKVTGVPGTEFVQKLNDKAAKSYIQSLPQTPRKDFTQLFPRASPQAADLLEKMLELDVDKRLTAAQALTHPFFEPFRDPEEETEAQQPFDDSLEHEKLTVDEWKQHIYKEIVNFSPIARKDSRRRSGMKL

[4] = molecular target: T4, panel of 374 wild-type kinases (Homo sapiens, UniProt Q9HBH9); conditions: read-out: % Enzyme Activity (relative to DMSO controls), MNK2
T4 construct: purchased Reaction Biology Corporation
T4 sequence (Q9HBH9 whole entry): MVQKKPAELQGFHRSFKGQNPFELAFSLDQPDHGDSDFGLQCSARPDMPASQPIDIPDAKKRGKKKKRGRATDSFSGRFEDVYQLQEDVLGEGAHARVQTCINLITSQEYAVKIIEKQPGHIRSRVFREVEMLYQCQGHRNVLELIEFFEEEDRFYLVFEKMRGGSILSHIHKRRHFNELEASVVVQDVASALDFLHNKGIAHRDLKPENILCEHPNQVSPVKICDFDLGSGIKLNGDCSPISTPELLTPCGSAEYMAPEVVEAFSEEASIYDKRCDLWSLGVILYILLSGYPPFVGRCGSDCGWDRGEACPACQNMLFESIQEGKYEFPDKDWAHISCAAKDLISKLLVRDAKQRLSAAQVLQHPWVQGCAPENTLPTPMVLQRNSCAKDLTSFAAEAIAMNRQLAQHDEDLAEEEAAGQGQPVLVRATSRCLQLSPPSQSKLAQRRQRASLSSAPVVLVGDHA

[5] = molecular target: T5, panel of 374 wild-type kinases (Homo sapiens, UniProt Q15349); conditions: read-out: % Enzyme Activity (relative to DMSO controls), kinase RSK3
T5 construct: purchased Reaction Biology Corporation
T5 sequence (Q15349 whole entry): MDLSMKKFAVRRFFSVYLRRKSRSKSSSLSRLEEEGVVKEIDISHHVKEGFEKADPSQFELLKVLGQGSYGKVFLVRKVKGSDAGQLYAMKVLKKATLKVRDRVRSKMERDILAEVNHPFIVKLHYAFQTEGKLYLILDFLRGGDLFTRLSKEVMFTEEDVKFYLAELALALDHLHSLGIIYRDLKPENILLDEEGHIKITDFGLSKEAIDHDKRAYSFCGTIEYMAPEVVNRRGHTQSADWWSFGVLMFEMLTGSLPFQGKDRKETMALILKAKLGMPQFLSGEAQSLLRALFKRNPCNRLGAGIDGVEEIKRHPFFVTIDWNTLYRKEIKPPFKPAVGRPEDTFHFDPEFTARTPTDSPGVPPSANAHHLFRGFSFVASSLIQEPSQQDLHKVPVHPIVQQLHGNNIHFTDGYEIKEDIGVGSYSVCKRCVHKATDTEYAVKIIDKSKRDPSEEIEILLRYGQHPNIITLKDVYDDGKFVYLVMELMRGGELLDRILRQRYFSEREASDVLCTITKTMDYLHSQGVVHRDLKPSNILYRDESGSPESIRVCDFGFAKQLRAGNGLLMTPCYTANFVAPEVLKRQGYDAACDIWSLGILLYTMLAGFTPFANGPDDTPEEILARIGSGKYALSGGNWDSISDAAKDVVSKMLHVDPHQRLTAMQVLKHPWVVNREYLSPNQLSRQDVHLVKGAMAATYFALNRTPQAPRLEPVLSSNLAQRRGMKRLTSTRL

[6] = molecular target: T6, panel of 374 wild-type kinases (Homo sapiens, UniProt P22612); conditions: read-out: % Enzyme Activity (relative to DMSO controls), kinase PKAcg
T6 construct: purchased Reaction Biology Corporation
T6 sequence (P22612 whole entry): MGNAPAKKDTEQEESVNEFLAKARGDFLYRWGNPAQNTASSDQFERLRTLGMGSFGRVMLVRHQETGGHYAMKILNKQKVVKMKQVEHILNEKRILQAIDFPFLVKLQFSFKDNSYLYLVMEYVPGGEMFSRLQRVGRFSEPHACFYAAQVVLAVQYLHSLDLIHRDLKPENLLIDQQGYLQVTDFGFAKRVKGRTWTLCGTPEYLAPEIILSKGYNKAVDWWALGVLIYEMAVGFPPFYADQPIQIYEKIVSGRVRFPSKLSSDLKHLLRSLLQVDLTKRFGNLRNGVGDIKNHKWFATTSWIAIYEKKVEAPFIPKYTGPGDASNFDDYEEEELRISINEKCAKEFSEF

[7] = molecular target: T7, panel of 374 wild-type kinases (Homo sapiens, UniProt P07947); conditions: read-out: % Enzyme Activity (relative to DMSO controls), kinase YES/YES1
T7 construct: purchased Reaction Biology Corporation
T7 sequence (P07947 whole entry): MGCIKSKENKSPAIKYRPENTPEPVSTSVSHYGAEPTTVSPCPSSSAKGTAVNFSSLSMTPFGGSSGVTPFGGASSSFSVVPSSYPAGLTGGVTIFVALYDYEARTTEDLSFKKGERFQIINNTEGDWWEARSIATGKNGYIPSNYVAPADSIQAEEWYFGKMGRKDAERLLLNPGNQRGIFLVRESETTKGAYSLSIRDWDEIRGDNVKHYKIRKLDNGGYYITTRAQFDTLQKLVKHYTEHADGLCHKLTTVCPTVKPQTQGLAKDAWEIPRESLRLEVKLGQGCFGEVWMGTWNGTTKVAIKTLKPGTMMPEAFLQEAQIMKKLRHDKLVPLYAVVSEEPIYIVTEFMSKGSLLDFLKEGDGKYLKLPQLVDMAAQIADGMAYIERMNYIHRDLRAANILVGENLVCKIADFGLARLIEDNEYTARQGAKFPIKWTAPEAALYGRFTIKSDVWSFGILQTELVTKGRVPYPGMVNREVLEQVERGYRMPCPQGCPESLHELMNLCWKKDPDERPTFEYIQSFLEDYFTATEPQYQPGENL

[8] = molecular target: T8, panel of 374 wild-type kinases (Homo sapiens, UniProt Q13554); conditions: read-out: % Enzyme Activity (relative to DMSO controls), CAMK2b
T8 construct: purchased Reaction Biology Corporation
T8 sequence (Q13554 whole entry): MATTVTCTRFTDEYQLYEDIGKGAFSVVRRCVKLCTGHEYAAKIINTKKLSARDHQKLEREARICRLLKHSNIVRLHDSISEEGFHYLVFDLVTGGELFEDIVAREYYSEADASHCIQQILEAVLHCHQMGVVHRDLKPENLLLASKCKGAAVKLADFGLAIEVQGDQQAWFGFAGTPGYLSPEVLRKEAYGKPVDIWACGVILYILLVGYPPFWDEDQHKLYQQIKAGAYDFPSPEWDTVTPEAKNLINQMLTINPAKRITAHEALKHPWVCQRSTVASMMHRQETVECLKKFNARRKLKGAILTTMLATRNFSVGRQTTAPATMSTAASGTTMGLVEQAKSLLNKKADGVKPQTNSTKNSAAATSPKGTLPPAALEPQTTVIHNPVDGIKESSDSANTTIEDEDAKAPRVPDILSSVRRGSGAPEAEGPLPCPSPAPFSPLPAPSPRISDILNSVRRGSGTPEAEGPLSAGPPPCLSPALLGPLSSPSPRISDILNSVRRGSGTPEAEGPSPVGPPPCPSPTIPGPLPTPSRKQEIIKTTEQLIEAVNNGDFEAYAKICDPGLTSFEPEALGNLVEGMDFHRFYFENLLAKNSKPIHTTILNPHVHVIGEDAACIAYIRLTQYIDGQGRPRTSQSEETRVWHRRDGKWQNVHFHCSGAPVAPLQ

[9] = molecular target: T9, panel of 374 wild-type kinases (Homo sapiens, UniProt Q09013); conditions: read-out: % Enzyme Activity (relative to DMSO controls), DMPK
T9 construct: purchased Reaction Biology Corporation
T9 sequence (Q09013 1-629): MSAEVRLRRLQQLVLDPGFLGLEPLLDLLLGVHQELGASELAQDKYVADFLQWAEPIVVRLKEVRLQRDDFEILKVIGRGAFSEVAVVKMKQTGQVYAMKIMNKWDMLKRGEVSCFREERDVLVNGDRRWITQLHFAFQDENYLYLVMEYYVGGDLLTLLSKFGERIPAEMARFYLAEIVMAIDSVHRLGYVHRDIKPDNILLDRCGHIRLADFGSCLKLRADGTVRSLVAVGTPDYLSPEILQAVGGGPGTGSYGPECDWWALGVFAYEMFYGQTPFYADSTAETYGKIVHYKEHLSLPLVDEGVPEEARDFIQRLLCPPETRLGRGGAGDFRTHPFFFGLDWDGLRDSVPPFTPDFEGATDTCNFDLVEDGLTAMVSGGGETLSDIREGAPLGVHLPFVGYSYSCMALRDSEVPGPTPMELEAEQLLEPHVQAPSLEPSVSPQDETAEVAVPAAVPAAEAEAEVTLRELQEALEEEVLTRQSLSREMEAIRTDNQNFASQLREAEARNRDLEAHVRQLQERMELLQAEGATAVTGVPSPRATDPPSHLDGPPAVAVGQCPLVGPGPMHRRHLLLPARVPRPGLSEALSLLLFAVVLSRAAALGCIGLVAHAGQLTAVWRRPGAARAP

Compound | remaining activity at 5 µM [1] [%] | remaining activity at 5 µM [2] [%] | remaining activity at 5 µM [3] [%] | remaining activity at 5 µM [4] [%] | remaining activity at 5 µM [5] [%] | remaining activity at 5 µM [6] [%] | remaining activity at 5 µM [7] [%] | remaining activity at 5 µM [8] [%] | remaining activity at 5 µM [9] [%] | remaining activity at 10 µM ([1]; 10 uM) [%] | remaining activity at 10 µM ([2]; 10 uM) [%] | remaining activity at 10 µM ([3]; 10 uM) [%] | remaining activity at 10 µM ([4]; 10 uM) [%] | remaining activity at 10 µM ([5]; 10 uM) [%] | remaining activity at 10 µM ([6]; 10 uM) [%] | remaining activity at 10 µM ([7]; 10 uM) [%] | remaining activity at 10 µM ([8]; 10 uM) [%] | remaining activity at 10 µM ([9]; 10 uM) [%]
O=C(Nc1cnn(-c2csc(C(=O)NC3COC3)c2)c1)Nc1c(F)cccc1Cl [Compound 25, 4-(4-(3-(2-chloro-6-fluorophenyl)ureido)-1H-pyrazol-1-yl)-N-(oxetan-3-yl)thiophene-2-carboxamide] | 98.1 | 89 | 98.4 | 90.8 | 90.1 | 97.6 | 91 | 99.1 | 110 |  |  |  |  |  |  |  |  | 
O=C(Nc1cnn(-c2csc(C(=O)NC3COC3)c2)c1)Nc1ccccc1Cl [Compound 17, 4-(4-(3-(2-chlorophenyl)ureido)-1H-pyrazol-1-yl)-N-(oxetan-3-yl)thiophene-2-carboxamide] | 97.8 | 87.9 | 122 | 99.3 | 103 | 104 | 96.5 | 105 | 102 |  |  |  |  |  |  |  |  | 
Cc1sc(C(=O)NC2COC2)cc1-n1cc(NC(=O)Nc2c(F)cccc2Cl)cn1 [Compound 27, 4-(4-(3-(2-chloro-6-fluorophenyl)ureido)-1H-pyrazol-1-yl)-5-methyl-N-(oxetan-3-yl)thiophene-2-carboxamide] |  |  |  |  |  |  |  |  |  | 93.7 | 96.4 | 89.2 | 83.4 | 100 | 99 | 81.4 | 100 | 95.2
